Assay results reported in patent publication US20020016384A1, “Hydrolysis-stable and polymerizable acrylophosphonic acid” (Ivoclar Vivadent AG., priority 2000, published 2002).

Columns and labels:
[1] = Investigation of the solubility in water and organic solvents; type: physicochemical
Text: The solubility of monomers 3 and 5 and of a comparison monomer (comparison monomer 2; X=COO, Z=H) in water, ethanol, acetone, methylene chloride and ethyl acetate was investigated.
Solubility: ++: very good (>20 wt.-%), +: good (10-20 wt.-%), 0: practically insoluble (<1 wt.-%). [drawing 25]

[2] = Investigation of the hydrolytic stability by 1H-NMR; type: physicochemical; conditions: 20% solution in 1:1 water/ethanol; for change in the 1H-NMR spectrum (hydrolytic stability): stored at 37° C., 12-week investigation period, spectrum recorded weekly
Description: Monomers 3 and 5 are each dissolved in a 1:1 mixture of water and ethanol and stored as 20% solution at 37° C. The ^1H-NMR spectrum of the solution is recorded weekly.

SMILES | Solubility in acetone [1] | Solubility in ethanol [1] | Solubility in ethyl acetate [1] | Solubility in methylene chloride [1] | Solubility in water [1] | change in the 1H-NMR spectrum (hydrolytic stability) [2] | hydrolytic elimination of the ethoxy group ([2]; 37° C., after 3 months, 1H-NMR)
C=C(COCCP(=O)(O)O)C(=O)N(CC)CC [Monomer 3, 2-[4-(dihydroxyphosphoryl)-2-oxabutyl]-acrylic acid diethylamide] | ++ (very good (>20 wt.-%)) | ++ (very good (>20 wt.-%)) | ++ (very good (>20 wt.-%)) | ++ (very good (>20 wt.-%)) | ++ (very good (>20 wt.-%)) | no change in the spectrum | –
C=C(COCCP(=O)(O)O)C(=O)O [Comparison monomer 2, reference compound] | 0 (practically insoluble (<1 wt.-%)) | 0 (practically insoluble (<1 wt.-%)) | 0 (practically insoluble (<1 wt.-%)) | 0 (practically insoluble (<1 wt.-%)) | ++ (very good (>20 wt.-%)) | – | –
C=C(COCCP(=O)(OC)OC)C(=O)OCC [comparison monomer 1, 2-[4-(dimethoxyphosphoryl)-2-oxa-butyl]-acrylic acid ethyl ester, reference compound] | – | – | – | – | – | – | 20%
C=C(C#N)COCCP(=O)(O)O [Monomer 5, 2-[4-(dihydroxyphosphoryl)-2-oxabutyl]-acrylonitrile] | ++ (very good (>20 wt.-%)) | ++ (very good (>20 wt.-%)) | ++ (very good (>20 wt.-%)) | ++ (very good (>20 wt.-%)) | ++ (very good (>20 wt.-%)) | no change in the spectrum | –
